In PMC4168900, “Expeditive synthesis of trithiotriazine-cored glycoclusters and inhibition of Pseudomonas aeruginosa biofilm formation” (Beilstein Journal of Organic Chemistry, 2014):

Key:
lecA [1] = target: T1, lecA (Pseudomonas aeruginosa, UniProt Q05097); experiment: Dynamic light scattering (DLS), aggregation of lecA
Method: Dynamic light scattering experiments (DLS) were performed on the trivalent and divalent galactose-substituted clusters 1, 16 and 17, as well as the glucose-substituted cluster 13 as a negative control. […] The inability of these systems to efficiently aggregate lectins is in stark contrast to the hexavalent benzene cluster, which may be attributed to differences in rigidity and hydrophobicity between the two systems. It thus appears that the direct diaryl sulfide bridge presents a more optimal degree of semi-rigidity.
Figure 2 Dynamic light scattering experiments of bis-D-galactosyl proparyl cluster 16 with lecA. Distribution by mass for lecA + buffer (left) and lecA + 16 (200 μM, right) at 3 minute intervals. Additional experiments can be found in Supporting Information File 1.

PAO1 = PAO1 growth inhibition control test; format: cell-based, Pseudomonas aeruginosa; conditions: PAO1 in the presence of clusters
Method: To check that differences observed were not due to bacterial growth defect in the presence of clusters, a growth inhibition control experiment was performed (Figure 4C). […] A) Biofilm growth assay in LB medium. B) Statistical analysis (above, n = 5, duplicate UV measurements) of ethanol-solubilized biofilm recovered from each well (below). C) PAO1 growth inhibition control test.

lecA [2] = target: T1, lecA; experiment: Isothermal titration calorimetry (ITC), binding to lecA; conditions: for ΔG / ΔH / β/N (improvement in affinity relative to the methyl glycoside, divided by the valency) / −TΔS / n (stoichiometry): T = 298 K; for n (stoichiometry): glycocluster ligands per monomer of lectin
Method: The affinities of the designed glycoconjugates with lecA and lecB were determined by isothermal titration calorimetry (ITC) by addition of the ligands to a solution of lectin (Figure 3). Dissociation constants (Kd) and thermodynamic parameters (ΔG, ΔH, −TΔS) are listed in Table 1, together with the experimental binding stoichiometry (n), defined as the number of glycocluster ligands per monomer of lectin. […]
Isothermal titration microcalorimetry (ITC):
Recombinant lyophilized lecA and lecB were dissolved in buffer (100 mM Tris-HCl pH 7.5, 6 µM CaCl2,) and degassed. The same procedure was applied for lecB with a different buffer (20mM Tris-HCl pH 7.54 100mM NaCl 100µM CaCl2). Protein concentration varied between 50 and 120 µM depending on the ligand affinity. Carbohydrate ligands were dissolved directly into the same buffer, degassed, and placed in the injection syringe. ITC was performed using a VP-ITC MicroCalorimeter from MicroCal Incorporated. lecA was placed into the 1.4478 mL sample cell, at 25°C. Titration was performed with 10 µL injections of carbohydrate ligands every 300 s. Data were fitted using MicroCal Origin 7 software according to standard procedures. Fitted data yielded the stoichiometry (n), the association constant (Ka), and the enthalpy of binding (∆H). Other thermodynamic parameters (i.e., changes in free energy ∆G and entropy ∆S) were calculated from the equation ∆G = ∆H - T∆S = -[…] in which T is the absolute […]
temperature and R = 8.314 Jmol-1K-1. […]

PAO1 biofilm = experiment: P. aeruginosa adherence / biofilm formation assay, crystal violet staining; format: cell-based, Pseudomonas aeruginosa; conditions: 5 mM cluster, 24 h, 30 °C, LB medium, compared to glucose-bearing cluster 13 or absence of cluster
Method: The P. aeruginosa adherence assay was performed in 24 well microplates. Biofilms were obtained after 24 h of incubation at 30 °C in LB medium alone or in the presence or galactose, fucose, or glucose (control)-substituted trivalent clusters and stained with crystal violet (CV).
All reagents were commercial and used without further purification. Solvents were distilled from CaH2.
(§1) Reactions under microwave activation were performed using a Biotage Initiator system. NMR spectra were recorded at 293 K, unless otherwise stated, using a 300 or 400 or 500 MHz spectrometer.
Shifts are referenced relative to deuterated solvent residual peaks. Complete signal assignments from 1D and 2D NMR spectroscopy were based on COSY, HSQC, and HMBC correlations. High-resolution (HR-ESI- QToF) mass spectra were recorded using a Bruker MicroToF-Q II XL spectrometer. Thin-layer chromatography (TLC) was carried out on aluminum sheets coated with silica gel 60 F254 (Merck). […] IR spectra were recorded on a Shimadzu FTIR-8400S IR spectrophotometer and n are expressed in cm-1. NMR spectra were recorded on a Bruker DRX (1H at 300 or 400 MHz, 13C at 75 or 100 MHz) or on a Bruker AV500 spectrometer (1H at 500 MHz, 13C at 125 MHz). HRMS were recorded in electrospray ionization mode on a micro q-tof Micromass in strument (3000 V) with an internal lock mass (H3PO4) and an external lock mass (Leu- […]

lecB = lecB (Pseudomonas aeruginosa, UniProt Q9HYN5); experiment: Isothermal titration calorimetry (ITC), binding to lecB
Method: The affinities of the designed glycoconjugates with lecA and lecB were determined by isothermal titration calorimetry (ITC) by addition of the ligands to a solution of lectin (Figure 3). Dissociation constants (Kd) and thermodynamic parameters (ΔG, ΔH, −TΔS) are listed in Table 1, together with the experimental binding stoichiometry (n), defined as the number of glycocluster ligands per monomer of lectin.
The observed β/N values in Table 1, which reflect the relative affinity per unit sugar, are 29 for the trivalent cluster and in the range of 12 for the bivalent clusters. These values most likely reflect sub-site binding by the heterocyclic rings. […] These clusters thus represent a readily accessible, highly soluble, and convenient tool for the investigation of the role of lecA and lecB in the formation of biofilms by Pseudomonas aeruginosa. […]
as §1
Shifts are referenced relative to deuterated solvent residual peaks. […] High-resolution (HR-ESI- QToF) mass spectra were recorded using a Bruker MicroToF-Q II XL spectrometer. […] IR spectra were recorded on a Shimadzu FTIR-8400S IR spectrophotometer and n are expressed in cm-1. […]

T1 sequence (Q05097 2-122): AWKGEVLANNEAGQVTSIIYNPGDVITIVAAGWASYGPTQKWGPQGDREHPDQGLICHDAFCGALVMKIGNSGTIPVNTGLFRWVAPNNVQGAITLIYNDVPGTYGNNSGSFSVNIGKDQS
lecB, sequence (Q9HYN5 entry or part of it): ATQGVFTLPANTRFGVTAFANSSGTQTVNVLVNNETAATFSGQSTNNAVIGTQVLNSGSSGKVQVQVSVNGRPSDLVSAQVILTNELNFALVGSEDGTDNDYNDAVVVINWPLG

Compound	aggregation of lecA (lecA [1])	bacterial growth defect (PAO1)	ΔG (lecA [2]; ITC)	affinity for the lectin (in words) (lecA [2]; ITC, negative control)	Kd (lecA [2])	ΔH (lecA [2]; ITC)	β/N (improvement in affinity relative to the methyl glycoside, divided by the valency) (lecA [2]; ITC)	−TΔS (lecA [2]; ITC)	n (stoichiometry) (lecA [2]; ITC)	biofilm formation (PAO1 biofilm)	Kd (lecB)
OC[C@H]1O[C@@H](n2cc(CSc3nc(SCc4cn([C@@H]5O[C@H](CO)[C@@H](O)[C@H](O)[C@H]5O)nn4)nc(SCc4cn([C@@H]5O[C@H](CO)[C@@H](O)[C@H](O)[C@H]5O)nn4)n3)nn2)[C@H](O)[C@@H](O)[C@@H]1O [compound 13, 2,4,6-tris(1-(β-D-glucopyranosyl)triazol-4-ylmethylthio)-1,3,5-triazine]	only the divalent bis-D-Gal propargyl cluster 16 induces rapid aggregation of lecA	No growth defect was observed	<0 kcal/mol	no affinity for the lectin							
C#CCSc1nc(SCc2cn([C@@H]3O[C@H](CO)[C@H](O)[C@H](O)[C@H]3O)nn2)nc(SCc2cn([C@@H]3O[C@H](CO)[C@H](O)[C@H](O)[C@H]3O)nn2)n1 [compound 16, 2,4-bis(1-(β-D-galactopyranosyl)triazol-4-ylmethylthio)-6-(prop-2-ynylthio)-1,3,5-triazine]	induces rapid aggregation of lecA		-7.29 kcal/mol		4.4 µM	-11.4 kcal/mol	11	4.11 kcal/mol	0.79		
CO[C@@H]1O[C@H](CO)[C@H](O)[C@H](O)[C@H]1O [β-D-GalOMe, methyl β-D-galactoside]							1				
OC[C@H]1O[C@@H](n2cc(CSc3nc(SCc4cn([C@@H]5O[C@H](CO)[C@H](O)[C@H](O)[C@H]5O)nn4)nc(SCc4cn([C@@H]5O[C@H](CO)[C@@H](O)[C@H](O)[C@H]5O)nn4)n3)nn2)[C@H](O)[C@@H](O)[C@H]1O [compound 17, 2,4-bis(1-(β-D-galactopyranosyl)triazol-4-ylmethylthio)-6-(1-(β-D-glucopyranosyl)triazol-4-ylmethylthio)-1,3,5-triazine]	only the divalent bis-D-Gal propargyl cluster 16 induces rapid aggregation of lecA		-7.48 kcal/mol		3.4 µM	-12.2 kcal/mol	14	4.71 kcal/mol	0.54		
C[C@@H]1O[C@H](n2cc(CSc3nc(SCc4cn([C@H]5O[C@@H](C)[C@@H](O)[C@@H](O)[C@@H]5O)nn4)nc(SCc4cn([C@H]5O[C@@H](C)[C@@H](O)[C@@H](O)[C@@H]5O)nn4)n3)nn2)[C@@H](O)[C@H](O)[C@@H]1O [compound 14, 2,4,6-tris(1-(β-L-fucopyranosyl)triazol-4-ylmethylthio)-1,3,5-triazine]		No growth defect was observed								statistically significant reduction in biofilm formation	50 µM
OC[C@H]1O[C@@H](n2cc(CSc3nc(SCc4cn([C@@H]5O[C@H](CO)[C@H](O)[C@H](O)[C@H]5O)nn4)nc(SCc4cn([C@@H]5O[C@H](CO)[C@H](O)[C@H](O)[C@H]5O)nn4)n3)nn2)[C@H](O)[C@@H](O)[C@H]1O [compound 1, 2,4,6-tris(1-(β-D-galactopyranosyl)triazol-4-ylmethylthio)-1,3,5-triazine]	only the divalent bis-D-Gal propargyl cluster 16 induces rapid aggregation of lecA	No growth defect was observed	-8.15 kcal/mol		1.09 µM	-15.8 kcal/mol	29	7.62 kcal/mol	0.31	statistically significant reduction in biofilm formation	
